Measured values from patent publication US5618812A, “Benzodiazepine derivatives” (Merck Sharp & Dohme, Ltd., priority 1992, dated 1997).
Counter-ions that a name gives are not always drawn. Like-named read-outs stand apart in the source and are kept apart here.

Assays:
CCK-A = target: T1, CCK-A (Rattus norvegicus, UniProt P30551); test: biochemical; type: binding
T1 sequence (P30551 1-444): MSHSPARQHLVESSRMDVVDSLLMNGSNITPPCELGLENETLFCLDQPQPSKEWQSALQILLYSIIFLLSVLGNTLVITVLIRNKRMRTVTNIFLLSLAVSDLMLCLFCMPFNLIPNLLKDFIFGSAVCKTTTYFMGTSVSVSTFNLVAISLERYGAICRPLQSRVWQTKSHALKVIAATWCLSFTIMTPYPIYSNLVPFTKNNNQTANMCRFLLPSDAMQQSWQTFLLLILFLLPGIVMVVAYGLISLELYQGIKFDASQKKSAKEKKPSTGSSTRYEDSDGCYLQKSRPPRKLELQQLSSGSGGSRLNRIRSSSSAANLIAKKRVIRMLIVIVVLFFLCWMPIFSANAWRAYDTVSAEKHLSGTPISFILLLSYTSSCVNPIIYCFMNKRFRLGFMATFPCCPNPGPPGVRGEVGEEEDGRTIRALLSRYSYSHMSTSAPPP
Procedure: (§1) The CCK-A and CCK-B antagonising activity of the compounds described herein was evaluated using the assays described in published European patent application no. 0514133. The method essentially involves determining the concentration of the test compound required to displace 50% of the specific ^125 I-CCK from rat pancreas (CCK-A) or guinea pig brain (CCK-B).

CCK-B = target: T2, CCK-B (Cavia porcellus, UniProt H0VZC5); test: displacement of specific 125I-CCK from guinea pig brain (CCK-B receptor binding)
T2 construct: guinea pig brain (CCK-B); from tissue; host or cells: guinea pig brain
T2 sequence (H0VZC5 1-426): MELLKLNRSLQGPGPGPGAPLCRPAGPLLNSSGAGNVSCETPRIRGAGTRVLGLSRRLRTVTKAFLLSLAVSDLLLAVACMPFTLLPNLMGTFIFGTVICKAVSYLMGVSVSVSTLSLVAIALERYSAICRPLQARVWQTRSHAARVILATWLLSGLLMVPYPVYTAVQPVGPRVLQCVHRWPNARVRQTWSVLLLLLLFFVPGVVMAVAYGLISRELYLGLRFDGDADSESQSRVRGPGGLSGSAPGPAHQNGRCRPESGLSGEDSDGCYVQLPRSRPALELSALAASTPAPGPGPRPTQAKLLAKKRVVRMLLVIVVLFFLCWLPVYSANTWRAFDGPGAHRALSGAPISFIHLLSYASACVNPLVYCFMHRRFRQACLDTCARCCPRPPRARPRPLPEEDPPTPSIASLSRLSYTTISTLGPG
Procedure: as §1, with “(CCK-B). The data in Table 1 were obtained for compounds of the Examples.” for “(CCK-B).”

[1] = read-out: CCK RECEPTOR BINDING RESULTS IC50 125I-CCK Pancreas
[2] = read-out: CCK RECEPTOR BINDING RESULTS IC50 125I-CCK Brain
[3] = rat pancreas (CCK-A), 125I-CCK, read-out: CCK RECEPTOR BINDING RESULTS IC50 125I-CCK Pancreas
[4] = CCK RECEPTOR BINDING RESULTS IC50 125I-CCK Pancreas, rat pancreas (CCK-A), 125I-CCK
[5] = CCK RECEPTOR BINDING RESULTS IC50 125I-CCK Brain

Row | IC50 (CCK-A; [1]) [nM] | IC50 (CCK-B; [2]) [nM] | IC50 (CCK-A; [3]) [nM] | SMILES | IC50 (CCK-A; [4]) [nM] | IC50 (CCK-B; [5]) [nM]
1 | 9.7 | 144 |  | Cc1cccc(NC(=O)NC2N=C(N3C[C@H]4CCCC[C@H]4C3)c3ccccc3N(C)C2=O)c1 (single isomer, unassigned; (+)) [Example 59, (+)-N-[2,3-Dihydro-1-methyl-5-(cis-octahydroisoindol-2-yl)-2-oxo-1H-1,4-benzodiazepin-3-yl]N'[-3-methylphenyl]urea hydrochloride] |  | 
2 |  | 35.2 | 114 | CCCN1C(=O)C(NC(=O)Nc2cccc(C)c2)N=C(N(C)C2CCCCC2)c2ccccc21 (single isomer, unassigned; (+)) [Example 62, (+) 5-(N-Cyclohexyl-N-methylamino)-2,3-dihydro-2-oxo-1-propyl-1H-1,4-benzodiazepin-3-y1-N'-[3-methylphenyl]urea] |  | 
3 |  | 13.7 | 138 | Cc1cccc(NC(=O)NC2N=C(N(C)C3CCCCC3)c3ccccc3N(C)C2=O)c1 (single isomer, unassigned; (+)) [Example 65, (+)5-(N-Cyclohexyl-N-methylamino)-2,3-dihydro-2-oxo-1-methyl-1H-1,4-benzodiazepin-3-yl-N'[3-methylphenyl]urea. Hydrochloride] |  | 
4 |  | 26.6 | 53.4 | Cc1cccc(NC(=O)NC2N=C(N(C)C3CCCCCC3)c3ccccc3N(C)C2=O)c1 (single isomer, unassigned; (+)) [Example 68, (+)-5-(N-Cycloheptyl-N-methylamino)-2,3-dihydro-1-methyl-2-oxo-1H-1,4-benzodiazepin-3-yl-N'-[3-methylphenyl]urea. Hydrochloride] |  | 
5 |  | 0.28 | 2180 | CC1CCN(C2=NC(NC(=O)Nc3ccc4c(c3)CCC4)C(=O)N(C)c3ccccc32)CC1 (single isomer, unassigned; (-)) [Example 12, (-)-N-[2,3,Dihydro-1-methyl-5-(4-methylpiperidin-1-yl)-2-oxo-1H-1,4-benzodiazepin-3-yl]N'-[indan-5-yl]urea hydrochloride] |  | 
6 |  | 0.27 | > 3000 | Cc1cccc(NC(=O)NC2N=C(N3CCCC(C)(C)C3)c3ccccc3N(C)C2=O)c1 (single isomer, unassigned; (-)) [Example 26, (-)-N-[2,3-dihydro-(3,3-dimethylpiperidin-1-yl)-1-methyl-2-oxo-1H-1,4-benzodiazepin-3-yl]N'-[3-methylphenyl]urea] |  | 
7 |  |  |  | CN1C(=O)C(NC(=O)Nc2cccc(F)c2)N=C(N2CC3CCC(CC3)C2)c2ccccc21 (single isomer, unassigned; (-)) [Example 36, (-)-N-[5-(3-Azabicyclo[3,2,2]nonan-3-yl)-2,3-dihydro-1-methyl-2-oxo-1H-1,4-benzodiazepin-3-yl]-N'-[3-fluorophenyl]urea Hydrochloride] | 1400 | 0.32
8 | 4010 | 0.17 |  | Cc1cccc(NC(=O)NC2N=C(N3CC4CCC(C4)C3)c3ccccc3N(C)C2=O)c1 (single isomer, unassigned; (-)) [Example 39, (-)-N-[5-(3-Azabicyclo[3,2,1]octan-3-yl)-2,3-dihydro-1-methyl-2-oxo-1H-1,4-benzodiazepin-3-yl]-N'-[3-methylphenyl]urea Hydrochloride] |  | 
9 |  |  |  | Cc1ccc(NC(=O)NC2N=C(N3CC4CCC(CC4)C3)c3ccccc3N(C)C2=O)cc1F (single isomer, unassigned; (-)) [Example 45, (-)-N-[5-(3-Azabicyclo[3,2,2]nonan-3-yl)-2,3-dihydro-1-methyl-2-oxo-1H-1,4-benzodiazepin-3-yl]-N'-[3-fluoro-4-methylphenyl]urea Hydrochloride] | > 3000 | 0.42
10 |  |  |  | Cc1cc(NC(=O)NC2N=C(N3CC4CCC(CC4)C3)c3ccccc3N(C)C2=O)ccc1F (single isomer, unassigned; (-)) [Example 53, (-)-N-[5-(3-Azabicyclo[3,2,2]nonan-3-yl)-2,3-dihydro-1-methyl-2-oxo-1H-1,4-benzodiazepin-3-yl]-N'-[4-fluoro-3-methylphenyl]urea Hydrochloride] | 3760 | 0.18
11 | 2260 | 2 |  | Cc1cccc(NC(=O)NC2N=C(N3C[C@H]4CCCC[C@H]4C3)c3ccccc3N(C)C2=O)c1 (single isomer, unassigned; (-)) [Example 58, (-)-N-[2,3-Dihydro-1-methyl-5-(cis-octahydroisoindol-2-yl)-2-oxo-1H-1,4-benzodiazepin-3-yl]-N'-[3-methylphenyl]urea hydrochloride] |  | 
12 |  | 0.22 | 704 | CCCN1C(=O)C(NC(=O)Nc2cccc(C)c2)N=C(N(C)C2CCCCC2)c2ccccc21 (single isomer, unassigned; (-)) [Example 61, (-)-5-(N-Cyclohexyl-N-methylamino)-2,3-dihydro-2-oxo-1-propyl-1H-1,4-benzodiazepin-3-yl-N'[3-methylphenyl]urea] |  | 
13 |  | 0.22 | 2070 | Cc1cccc(NC(=O)NC2N=C(N(C)C3CCCCC3)c3ccccc3N(C)C2=O)c1 (single isomer, unassigned; (-)) [Example 64, (-)5-(N-Cyclohexyl-N-methylamine)-2,3-dihydro-2-oxo-1-methyl-1H-1,4-benzodiazepin-3-yl-N'-[3-methylphenyl]urea. Hydrochloride] |  | 
14 |  | 0.1 | 2000 | Cc1cccc(NC(=O)NC2N=C(N(C)C3CCCCCC3)c3ccccc3N(C)C2=O)c1 (single isomer, unassigned; (-)) [Example 67, (-)-5-(N-Cycloheptyl-N-methylamino)-2,3-dihydro-1-methyl-2-oxo-1H-1,4-benzodiazepin-3-yl-N'-[3-methylphenyl]urea, Hydrochloride] |  | 
15 |  | 0.61 | > 3000 | CN1C(=O)C(NC(=O)Nc2ccc3c(c2)CCC3)N=C(N(C)C2CCCCCC2)c2ccccc21 (single isomer, unassigned; (-)) [Example 70, (-)-5-(N-Cycloheptyl-N-methylamino)-2,3-dihydro-1-methyl-2-oxo-1H-1,4-benzodiazepin-3-yl-N'-[5-indanyl]urea. Hydrochloride] |  | 
16 |  |  |  | CN1C(=O)C(NC(=O)c2cc3ccccc3[nH]2)N=C(N2CC3CCC(CC3)C2)c2ccccc21 (single isomer, unassigned; (-)) [Example 88, (-)-N-(5-(3-Azabicyclo[3,2,2]nonan-3-yl)-2,3-dihydro-1-methyl-2-oxo-1H-1,4-benzodiazepin-3-yl)-1H-indole-2-carboxamide hydrochloride] | 393 | 66

Row | SMILES | IC50 (CCK-A; [1]) [nM] | IC50 (CCK-B; [2]) [nM] | IC50 (CCK-A; [3]) [nM] | IC50 (CCK-A; [4]) [nM] | IC50 (CCK-B; [5]) [nM]
17 | CN1C(=O)C(NC(=O)c2cc3ccccc3[nH]2)N=C(N2CC3CCC(CC3)C2)c2ccccc21 (single isomer, unassigned; (+)) [Example 89, (+)-N-(5-(3-Azabicyclo[3,2,2]nonan-3-yl)-2,3-ihydro-1-methyl-2-oxo-1H-1,4-benzodiazepin-3-yl)-1H-indole-2-carboxamide dihydrochloride] |  | 653 | 0.26 |  | 
18 | CN1C(=O)C(NC(=O)Nc2ccc3c(c2)CCC3)N=C(N2CC3CCC(CC3)C2)c2ccccc21 (single isomer, unassigned; (-)) [Example 41, (-)-N-[5-(3-Azabicyclo[3,2,2]nonan-3-yl)-2,3-dihydro-1-methyl-2-oxo-1H-1,4-benzodiazepin-3-yl]-N'-[5-indanyl]urea] |  |  | > 3000 |  | 0.37
19 | CN1C(=O)C(NC(=O)Nc2cccc(I)c2)N=C(N2CC3CCC(CC3)C2)c2ccccc21 (single isomer, unassigned; (-)) [Example 48, (-)-N-[5-(3-Azabicyclo[3,2,2]nonan-3-yl)-2,3-dihydro-1-methyl-2-oxo-1H-1,4-benzodiazepin-3-yl]-N'-[3-iodophenyl]urea] |  |  | 2420 |  | 1.11
20 | CN1C(=O)C(NC(=O)Nc2cccc(C(F)(F)F)c2)N=C(N2CC3CCC(CC3)C2)c2ccccc21 (single isomer, unassigned; (-)) [Example 55, (-)-N-[5-(3-Azabicyclo[3,2,2]nonan-3-yl)-2,3-dihydro-1-methyl]-2-oxo-1H-1,4-benzodiazepin-3-yl]-N'-[3-trifluoromethylphenyl]urea Hydrochloride] |  |  | > 3000 |  | 0.73
